Blank lines part the entries; values can stand above or below the molecule they belong to. Activity calls are given as the source filed them. The calls are words filed in the database; no cut-off is given here.
Experiments:
U-87 MG [1] = experiment: Induction of apoptosis in human U87 cells assessed as necrotic cells at 1 uM incubated for 48 hrs in presence of 4-(4-(3-(4-chloro-3-(trifluoromethyl)phenyl)ureido)phenoxy)-N-(prop-2-yn-1-yl)picolinamide by Annexin V-FLTC/PI staining based flow cytometry (reference value: 0.60 %); type: functional, U-87MG ATCC
U-87 MG [2] = experiment: Induction of apoptosis in human U87 cells assessed as early apoptotic cells at 20 uM incubated for 48 hrs in presence of 4-(4-(3-(4-chloro-3-(trifluoromethyl)phenyl)ureido)phenoxy)-N-(prop-2-yn-1-yl)picolinamide by Annexin V-FLTC/PI staining based flow cytometry (reference value: 8.95 %); type: functional, U-87MG ATCC
U-87 MG [3] = experiment: Induction of apoptosis in human U87 cells assessed as viable cells at 20 uM incubated for 48 hrs in presence of 4-(4-(3-(4-chloro-3-(trifluoromethyl)phenyl)ureido)phenoxy)-N-(prop-2-yn-1-yl)picolinamide by Annexin V-FLTC/PI staining based flow cytometry (reference value: 86.74 %); type: functional, U-87MG ATCC; details: read-out: Activity
U-87 MG [4] = experiment: Induction of apoptosis in human U87 cells assessed as early apoptotic cells at 10 uM incubated for 48 hrs in presence of 4-(4-(3-(4-chloro-3-(trifluoromethyl)phenyl)ureido)phenoxy)-N-(prop-2-yn-1-yl)picolinamide by Annexin V-FLTC/PI staining based flow cytometry (reference value: 8.95 %); type: functional, U-87MG ATCC
U-87 MG [5] = experiment: Induction of apoptosis in human U87 cells assessed as early apoptotic cells at 5 uM incubated for 48 hrs in presence of 4-(4-(3-(4-chloro-3-(trifluoromethyl)phenyl)ureido)phenoxy)-N-(prop-2-yn-1-yl)picolinamide by Annexin V-FLTC/PI staining based flow cytometry (reference value: 8.95 %); type: functional, U-87MG ATCC
A549 = experiment: Antiproliferative activity against human A549 cells incubated for 48 hrs in presence of 4-(4-(3-(4-chloro-3-(trifluoromethyl)phenyl)ureido)phenoxy)-N-(prop-2-yn-1-yl)picolinamide by MTT assay; type: functional, cell-based; details: A549, 48 h
[6] = Stability of compound in H2O by HPLC analysis; type: physicochemical
U-87 MG [7] = experiment: Induction of apoptosis in human U87 cells assessed as late apoptotic cells at 1 uM incubated for 48 hrs in presence of 4-(4-(3-(4-chloro-3-(trifluoromethyl)phenyl)ureido)phenoxy)-N-(prop-2-yn-1-yl)picolinamide by Annexin V-FLTC/PI staining based flow cytometry (reference value: 3.71 %); type: functional, U-87MG ATCC
U-87 MG [8] = experiment: Induction of apoptosis in human U87 cells assessed as early apoptotic cells at 0.1 uM incubated for 48 hrs in presence of 4-(4-(3-(4-chloro-3-(trifluoromethyl)phenyl)ureido)phenoxy)-N-(prop-2-yn-1-yl)picolinamide by Annexin V-FLTC/PI staining based flow cytometry (reference value: 8.95 %); type: functional, U-87MG ATCC
U-87 MG [9] = experiment: Induction of apoptosis in human U87 cells assessed as viable cells at 1 uM incubated for 48 hrs in presence of 4-(4-(3-(4-chloro-3-(trifluoromethyl)phenyl)ureido)phenoxy)-N-(prop-2-yn-1-yl)picolinamide by Annexin V-FLTC/PI staining based flow cytometry (reference value: 86.74 %); type: functional, U-87MG ATCC; details: read-out: Activity
[10] = target: Platelet-derived growth factor receptor beta (Homo sapiens) (UniProt P09619); experiment: Induction of PDGFR-beta degradation in human U87 cells at 10 uM incubated for 48 hrs in presence of 4-(4-(3-(4-chloro-3-(trifluoromethyl)phenyl)ureido)phenoxy)-N-(prop-2-yn-1-yl)picolinamide by Western blot analysis; type: cell-based
Sequence of Platelet-derived growth factor receptor beta (Homo sapiens) (P09619 whole entry): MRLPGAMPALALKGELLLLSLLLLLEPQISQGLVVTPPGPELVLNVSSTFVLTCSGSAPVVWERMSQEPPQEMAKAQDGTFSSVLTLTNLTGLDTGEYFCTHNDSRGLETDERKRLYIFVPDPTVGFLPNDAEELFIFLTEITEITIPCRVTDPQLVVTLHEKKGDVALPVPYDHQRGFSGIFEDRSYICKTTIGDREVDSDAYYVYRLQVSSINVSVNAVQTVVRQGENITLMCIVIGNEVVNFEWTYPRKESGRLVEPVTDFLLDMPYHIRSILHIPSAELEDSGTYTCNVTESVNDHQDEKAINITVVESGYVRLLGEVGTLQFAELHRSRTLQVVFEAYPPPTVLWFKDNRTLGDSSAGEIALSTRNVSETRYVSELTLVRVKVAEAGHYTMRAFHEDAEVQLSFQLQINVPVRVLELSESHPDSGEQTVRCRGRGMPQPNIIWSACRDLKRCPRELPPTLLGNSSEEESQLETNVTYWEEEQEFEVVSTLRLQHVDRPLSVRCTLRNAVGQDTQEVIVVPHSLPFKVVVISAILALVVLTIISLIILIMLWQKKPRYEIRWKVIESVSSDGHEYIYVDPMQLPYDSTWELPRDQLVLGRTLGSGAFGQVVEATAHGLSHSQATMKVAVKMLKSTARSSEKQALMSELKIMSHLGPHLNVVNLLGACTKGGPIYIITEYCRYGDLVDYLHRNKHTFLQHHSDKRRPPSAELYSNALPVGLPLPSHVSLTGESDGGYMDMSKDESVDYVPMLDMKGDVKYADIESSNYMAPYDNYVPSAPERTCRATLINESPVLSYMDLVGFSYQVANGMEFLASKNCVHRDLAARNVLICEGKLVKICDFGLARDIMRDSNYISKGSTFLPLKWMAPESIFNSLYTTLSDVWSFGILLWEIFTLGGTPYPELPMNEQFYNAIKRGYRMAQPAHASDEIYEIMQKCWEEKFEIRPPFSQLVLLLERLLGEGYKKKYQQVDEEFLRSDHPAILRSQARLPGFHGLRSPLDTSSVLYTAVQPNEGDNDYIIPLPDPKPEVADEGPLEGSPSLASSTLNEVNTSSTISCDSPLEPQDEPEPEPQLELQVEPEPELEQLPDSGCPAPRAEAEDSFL

[11] = target: Vascular endothelial growth factor receptor 2 (Homo sapiens) (UniProt P35968); experiment: Induction of VEGFR2 degradation in human U87 cells at 10 uM incubated for 48 hrs in presence of 4-(4-(3-(4-chloro-3-(trifluoromethyl)phenyl)ureido)phenoxy)-N-(prop-2-yn-1-yl)picolinamide by Western blot analysis; type: cell-based
Sequence of Vascular endothelial growth factor receptor 2 (Homo sapiens) (P35968 whole entry): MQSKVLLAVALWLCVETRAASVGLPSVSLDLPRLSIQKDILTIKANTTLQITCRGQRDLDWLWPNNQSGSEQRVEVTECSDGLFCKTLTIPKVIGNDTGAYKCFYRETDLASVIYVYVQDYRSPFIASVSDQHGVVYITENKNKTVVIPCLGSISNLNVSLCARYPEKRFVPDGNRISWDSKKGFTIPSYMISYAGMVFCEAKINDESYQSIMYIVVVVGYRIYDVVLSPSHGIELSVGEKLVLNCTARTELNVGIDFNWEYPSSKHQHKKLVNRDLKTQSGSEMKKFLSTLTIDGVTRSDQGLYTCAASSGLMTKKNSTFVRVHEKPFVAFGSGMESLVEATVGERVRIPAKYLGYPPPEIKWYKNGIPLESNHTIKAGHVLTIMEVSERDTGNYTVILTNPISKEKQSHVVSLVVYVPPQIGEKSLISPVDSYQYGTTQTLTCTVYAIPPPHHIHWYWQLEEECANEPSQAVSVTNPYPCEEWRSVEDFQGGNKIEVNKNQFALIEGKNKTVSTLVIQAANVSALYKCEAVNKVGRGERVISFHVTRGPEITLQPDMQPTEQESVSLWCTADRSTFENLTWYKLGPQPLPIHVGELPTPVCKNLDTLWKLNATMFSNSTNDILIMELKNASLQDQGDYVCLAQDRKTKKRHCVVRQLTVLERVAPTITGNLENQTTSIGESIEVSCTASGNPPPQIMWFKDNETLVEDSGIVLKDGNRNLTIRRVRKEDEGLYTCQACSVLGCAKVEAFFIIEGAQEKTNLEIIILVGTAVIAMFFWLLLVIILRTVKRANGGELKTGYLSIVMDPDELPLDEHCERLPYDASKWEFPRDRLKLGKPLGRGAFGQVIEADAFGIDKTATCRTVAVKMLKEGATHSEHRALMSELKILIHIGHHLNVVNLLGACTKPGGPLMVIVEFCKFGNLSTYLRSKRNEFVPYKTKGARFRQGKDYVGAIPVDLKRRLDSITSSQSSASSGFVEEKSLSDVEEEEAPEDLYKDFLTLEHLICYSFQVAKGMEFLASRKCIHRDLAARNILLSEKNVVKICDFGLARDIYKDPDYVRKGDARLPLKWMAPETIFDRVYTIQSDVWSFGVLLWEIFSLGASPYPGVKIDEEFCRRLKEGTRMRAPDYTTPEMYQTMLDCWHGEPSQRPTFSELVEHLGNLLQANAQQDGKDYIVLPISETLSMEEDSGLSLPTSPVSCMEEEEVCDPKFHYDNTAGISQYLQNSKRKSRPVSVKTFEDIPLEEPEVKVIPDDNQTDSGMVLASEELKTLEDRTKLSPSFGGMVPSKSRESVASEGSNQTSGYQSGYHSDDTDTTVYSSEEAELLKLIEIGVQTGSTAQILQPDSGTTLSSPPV

U-87 MG [12] = experiment: Induction of apoptosis in human U87 cells assessed as late apoptotic cells at 0.1 uM incubated for 48 hrs in presence of 4-(4-(3-(4-chloro-3-(trifluoromethyl)phenyl)ureido)phenoxy)-N-(prop-2-yn-1-yl)picolinamide by Annexin V-FLTC/PI staining based flow cytometry (reference value: 3.71 %); type: functional, U-87MG ATCC
U-87 MG [13] = experiment: Induction of apoptosis in human U87 cells assessed as late apoptotic cells at 20 uM incubated for 48 hrs in presence of 4-(4-(3-(4-chloro-3-(trifluoromethyl)phenyl)ureido)phenoxy)-N-(prop-2-yn-1-yl)picolinamide by Annexin V-FLTC/PI staining based flow cytometry (reference value: 3.71 %); type: functional, U-87MG ATCC
[14] = target: Vascular endothelial growth factor receptor 2 (Homo sapiens) (UniProt P35968); experiment: Induction of VEGFR2 degradation in human U87 cells at 2 uM incubated for 48 hrs in presence of (2S,4R)-1-((S)-2-(5-azidopentanamido)-3,3-dimethylbutanoyl)-4-hydroxy-N-(4-(4-methylthiazol-5-yl)benzyl)pyrrolidine-2-carboxamide by Western blot analysis; type: cell-based
U-87 MG [15] = experiment: Induction of apoptosis in human U87 cells assessed as viable cells at 0.1 uM incubated for 48 hrs in presence of (2S,4R)-1-((S)-2-(5-azidopentanamido)-3,3-dimethylbutanoyl)-4-hydroxy-N-(4-(4-methylthiazol-5-yl)benzyl)pyrrolidine-2-carboxamide by Annexin V-FLTC/PI staining based flow cytometry (reference value: 86.74 %); type: functional, U-87MG ATCC; details: read-out: Activity
U-87 MG [16] = experiment: Induction of apoptosis in human U87 cells assessed as late apoptotic cells at 20 uM incubated for 48 hrs in presence of (2S,4R)-1-((S)-2-(5-azidopentanamido)-3,3-dimethylbutanoyl)-4-hydroxy-N-(4-(4-methylthiazol-5-yl)benzyl)pyrrolidine-2-carboxamide by Annexin V-FLTC/PI staining based flow cytometry (reference value: 3.71 %); type: functional, U-87MG ATCC
U-87 MG [17] = experiment: Induction of apoptosis in human U87 cells assessed as late apoptotic cells at 1 uM incubated for 48 hrs in presence of (2S,4R)-1-((S)-2-(5-azidopentanamido)-3,3-dimethylbutanoyl)-4-hydroxy-N-(4-(4-methylthiazol-5-yl)benzyl)pyrrolidine-2-carboxamide by Annexin V-FLTC/PI staining based flow cytometry (reference value: 3.71 %); type: functional, U-87MG ATCC
U-87 MG [18] = experiment: Induction of apoptosis in human U87 cells assessed as early apoptotic cells at 5 uM incubated for 48 hrs in presence of (2S,4R)-1-((S)-2-(5-azidopentanamido)-3,3-dimethylbutanoyl)-4-hydroxy-N-(4-(4-methylthiazol-5-yl)benzyl)pyrrolidine-2-carboxamide by Annexin V-FLTC/PI staining based flow cytometry (reference value: 8.95 %); type: functional, U-87MG ATCC
U-87 MG [19] = experiment: (§1) Induction of apoptosis in human U87 cells assessed as necrotic cells at 5 uM incubated for 48 hrs in presence of (2S,4R)-1-((S)-2-(5-azidopentanamido)-3,3-dimethylbutanoyl)-4-hydroxy-N-(4-(4-methylthiazol-5-yl)benzyl)pyrrolidine-2-carboxamide by Annexin V-FLTC/PI staining based flow cytometry (reference value: 0.60 %); type: functional, U-87MG ATCC
U-87 MG [20] = experiment: Antiproliferative activity against human U87 cells incubated for 48 hrs in presence of (2S,4R)-1-((S)-2-(5-azidopentanamido)-3,3-dimethylbutanoyl)-4-hydroxy-N-(4-(4-methylthiazol-5-yl)benzyl)pyrrolidine-2-carboxamide by MTT assay; type: functional, cell-based, U-87MG ATCC
[21] = target: Platelet-derived growth factor receptor beta (Homo sapiens) (UniProt P09619); experiment: Induction of PDGFR-beta degradation in human U87 cells at 10 uM incubated for 48 hrs in presence of 4-azido-N-(2-(2,6-dioxopiperidin-3-yl)-1,3-dioxoisoindolin-4-yl)butanamide by Western blot analysis; type: cell-based
U-87 MG [22] = experiment: Induction of apoptosis in human U87 cells assessed as early apoptotic cells at 20 uM incubated for 48 hrs in presence of (2S,4R)-1-((S)-2-(5-azidopentanamido)-3,3-dimethylbutanoyl)-4-hydroxy-N-(4-(4-methylthiazol-5-yl)benzyl)pyrrolidine-2-carboxamide by Annexin V-FLTC/PI staining based flow cytometry (reference value: 8.95 %); type: functional, U-87MG ATCC
U-87 MG [23] = experiment: as §1, with “at 0.1” for “at 5”; type: functional, U-87MG ATCC
U-87 MG [24] = experiment: as §1, with “at 20” for “at 5”; type: functional, U-87MG ATCC
[25] = target: Platelet-derived growth factor receptor beta (Homo sapiens) (UniProt P09619); experiment: Induction of PDGFR-beta degradation in human U87 cells upto 10 uM incubated for 48 hrs by Western blot analysis; type: cell-based

IC50 (A549): 1.16 µM
Stability [6]: Stable
Activity [10]: Active
Activity [11]: Active
SMILES: [N-]=[N+]=NCCCC(=O)Nc1cccc2c1C(=O)N(C1CCC(=O)NC1=O)C2=O (stereo unspecified)
Activity (U-87 MG [1]): 1.26%
Activity (U-87 MG [2]): 4.73%
viability at 20 µM (U-87 MG [3]): 9.88%
Activity (U-87 MG [4]): 0.08%
Activity (U-87 MG [5]): 0.05%
Activity (U-87 MG [7]): 5.43%
Activity (U-87 MG [8]): 10.27%
viability at 1 µM (U-87 MG [9]): 81.6%
Activity (U-87 MG [12]): 3.35%
Activity (U-87 MG [13]): 79.04%

Activity [14]: Active
IC50 (U-87 MG [20]): 16 µM
Activity [21]: Active
Activity [25]: inactive
SMILES: C#CCNC(=O)c1cc(Oc2ccc(NC(=O)Nc3ccc(Cl)c(C(F)(F)F)c3)cc2)ccn1
viability at 0.1 µM (U-87 MG [15]): 85.3%
Activity (U-87 MG [16]): 79.04%
Activity (U-87 MG [17]): 5.43%
Activity (U-87 MG [18]): 0.05%
Activity (U-87 MG [19]): 25.22%
Activity (U-87 MG [22]): 4.73%
Activity (U-87 MG [23]): 1.02%
Activity (U-87 MG [24]): 6.36%

— ChEMBL document CHEMBL5620355, “Discovery of intracellular self-assembly protein degraders driven by tumor-specific activatable bioorthogonal reaction” (Eur J Med Chem, 2023)
